Laboratory results taken from patent US5495032A, “Process for producing 7-(substituted)-8-(substituted-9-[(substituted glycyl)amido]-6-demethyl-6-deoxytetracyclines” (priority 1994, dated 1996).
Structures can show the parent of a compound that is named as a salt. Where two headings read alike, the source gives them in different places.

Legend:
Type in all cases: cell-based
E. coli UBMS 88-1 Tet B = test: microbe, parasite or virus in culture; settings: Escherichia coli, UBMS881TETB, 18 h, 18 hours at 35° C.
[1] = system: E. coli MC 4100 Tet sens.; test: MIC, agar dilution method; settings: Escherichia coli, 18 hours at 35° C., read-out: MIC
E. coli PRP1 Tet A = test: microbe, parasite or virus in culture; settings: Escherichia coli, PRP1TETA, 18 h, 18 hours at 35° C.
[2] = system: E. coli MC 4100 TNIOC Tet B; test: microbe, parasite or virus in culture; settings: Escherichia coli, 18 h, 18 hours at 35° C.
E. coli J3272 Tet C = test: microbe, parasite or virus in culture; settings: Escherichia coli, J3272TETC, 18 h
E. coli UBMS 89-1 Tet M = test: microbe, parasite or virus in culture; settings: Escherichia coli, UBMS891TETM, 18 h, 18 hours at 35° C.
[3] = system: E. coli UBMS 89-2 Tet sens; test: MIC, agar dilution method; settings: Escherichia coli, UBMS892TETSENS, 18 h, 18 hours at 35° C., read-out: MIC
E. coli J2175 = test: MIC, agar dilution method; settings: Escherichia coli, 18 hours at 35° C., read-out: MIC
E. coli BAJ9003 IMP MUT = test: microbe, parasite or virus in culture; settings: Escherichia coli, BAJ9003IMPMUT, 18 h, 18 hours at 35° C.
E. coli UBMS 90-4 Tet M = test: microbe, parasite or virus in culture; settings: Escherichia coli, UBMS904TETM, 18 h, 18 hours at 35° C.
E. coli UBMS 90-5 sens = test: MIC, agar dilution method; settings: Escherichia coli, UBMS905SENS, 18 hours at 35° C., read-out: MIC
E. coli #311 (MP) = test: MIC, agar dilution method; settings: Escherichia coli, 18 hours at 35° C., read-out: MIC
E. coli ATCC 25922 = test: MIC, agar dilution method; settings: Escherichia coli, ATCC25922, 18 hours at 35° C., read-out: MIC
E. coli J3272 Tet D = test: microbe, parasite or virus in culture; settings: Escherichia coli, J3272TETD, 18 h
S. mariescens FPOR 8733 = test: MIC, agar dilution method; settings: 18 h, 18 hours at 35° C.
[4] = system: X. maltophilia NEMC 87210; test: MIC, agar dilution method; settings: Stenotrophomonas maltophilia, NEMC87210, 18 h, 18 hours at 35° C.
[5] = system: Ps. acruginosa ATCC 27853; test: MIC, agar dilution method; settings: Ps. acruginosa ATCC 27853; 18 hours at 35° C.; read-out: MIC
S. aureus NEMC 8769 = test: MIC, agar dilution method; settings: Staphylococcus aureus, NEMC8769, 18 h
S. aureus UBMS 88-4 = test: MIC, agar dilution method; settings: Staphylococcus aureus, UBMS884, 18 hours at 35° C., read-out: MIC
[6] = system: S. aureus UBMS 88-5 Tet M; test: microbe, parasite or virus in culture; settings: Staphylococcus aureus, UBMS885TETM, 18 h
[7] = system: S. aureus UBMS 88-7 Tet K; test: microbe, parasite or virus in culture; settings: Staphylococcus aureus, UBMS887TETK, 18 h, 18 hours at 35° C.
[8] = system: S. aureus UBMS 90-1 Tet M; test: microbe, parasite or virus in culture; settings: Staphylococcus aureus, UBMS901TETM, 18 h, 18 hours at 35° C.
S. aureus UBMS 90-3 = test: MIC, agar dilution method; settings: Staphylococcus aureus, UBMS903, 18 h
[9] = system: S. aureus UBMS 90-2 Tet M; test: microbe, parasite or virus in culture; settings: Staphylococcus aureus, UBMS902TETM, 18 h, 18 hours at 35° C.
S. aureus IVES 2943 = test: MIC, agar dilution method; settings: Staphylococcus aureus
S. aureus ROSE (MP) = test: MIC, agar dilution method; settings: Staphylococcus aureus, 18 h, 18 hours at 35° C.
S. aureus SMITH (MP) = test: MIC, agar dilution method; settings: Staphylococcus aureus, 18 hours at 35° C.
S. aureus IVES 1 983 = test: MIC, agar dilution method; settings: Staphylococcus aureus
S. aureus ATCC 29213 = test: MIC, agar dilution method; settings: Staphylococcus aureus, ATCC29213, 18 h, 18 hours at 35° C.
[10] = system: S. hemolyticus AVHAH 88-3; test: MIC, agar dilution method; settings: Streptococcus pyogenes, AVHAH883, 18 h, 18 hours at 35° C.
Enterococcus 12201 = test: MIC, agar dilution method; settings: Enterococcus, 12201, 18 h, 18 hours at 35° C.
E. faecalis ATCC 29212 = test: MIC, agar dilution method; settings: Enterococcus faecalis

Row | SMILES | MIC (E. coli UBMS 88-1 Tet B) | MIC [1] | MIC (E. coli PRP1 Tet A) | MIC [2] | MIC (E. coli J3272 Tet C) | MIC (E. coli UBMS 89-1 Tet M) | MIC [3] | MIC (E. coli J2175) | MIC (E. coli BAJ9003 IMP MUT) | MIC (E. coli UBMS 90-4 Tet M) | MIC (E. coli UBMS 90-5 sens) | MIC (E. coli #311 (MP)) | MIC (E. coli ATCC 25922) | MIC (E. coli J3272 Tet D) | MIC (S. mariescens FPOR 8733) | MIC [4] | MIC [5] | MIC (S. aureus NEMC 8769) | MIC (S. aureus UBMS 88-4) | MIC [6] | other results
1 | CN(C)[C@@H]1C(O)=C(C(N)=O)C(=O)[C@@]2(O)C(O)=C3C(=O)c4c(cc(Cl)c(NC(=O)CN5CCCC5)c4O)CC3CC12 (stereo partly drawn) [E, [7S-(7α,10aα)]-N-[9-(Aminocarbonyl)-3-chloro-7-(dimethylamino)-5,5a,6,6a,7, 10,10a,12-octahydro-1,2,10a,11-tetrahydroxy-10,12-dioxo-2-naphthacenyl]-1-pyrrolidineacetamide dihydrochloride] | 1 µg/mL | 0.25 µg/mL | 2 µg/mL | 1 µg/mL | 1 µg/mL | 0.25 µg/mL | 1 µg/mL | 1 µg/mL | 0.12 µg/mL | 1 µg/mL | 1 µg/mL | 0.25 µg/mL | 0.25 µg/mL | 0.25 µg/mL | 8 µg/mL | 1 µg/mL | 32 µg/mL | 0.25 µg/mL | 0.25 µg/mL | 0.25 µg/mL | MIC [7]: 2 µg/mL; MIC [8]: 0.25 µg/mL; MIC (S. aureus UBMS 90-3): 0.12 µg/mL; MIC [9]: 0.25 µg/mL; MIC (S. aureus IVES 2943; IVES2943, S. aureus IVES 2943, 18 hours at 35° C., read-out: MIC): 4 µg/mL; MIC (S. aureus ROSE (MP)): 8 µg/mL; MIC (S. aureus SMITH (MP); 18 h): 0.25 µg/mL; MIC (S. aureus IVES 1 983; IVES1983, S. aureus IVES 1 983, 18 hours at 35° C., read-out: MIC): 4 µg/mL; MIC (S. aureus ATCC 29213): 0.25 µg/mL; MIC [10]: 2 µg/mL; MIC (Enterococcus 12201): 0.25 µg/mL; MIC (E. faecalis ATCC 29212; ATCC29212, 18 hours at 35° C., read-out: MIC): 0.12 µg/mL
2 | CCCCCNCC(=O)Nc1c(Cl)cc2c(c1O)C(=O)C1=C(O)[C@]3(O)C(=O)C(C(N)=O)=C(O)[C@@H](N(C)C)C3CC1C2 (stereo partly drawn) [H, [4S-(4α,12aα)]-8-Chloro-4-(dimethylamino)-1,4,4a,5,5a,6,11,12a-octahydro-3, 10,12,12a-tetrahydroxy-1,11-dioxo-9-[[(pentylamino)acetyl]amino]-2-naphthacenecarboxamide dihydrochloride] | 2 µg/mL | 0.25 µg/mL | 2 µg/mL | 2 µg/mL | 2 µg/mL | 0.5 µg/mL | 2 µg/mL | 2 µg/mL | 0.25 µg/mL | 2 µg/mL | 2 µg/mL | 2 µg/mL | 2 µg/mL | 1 µg/mL | 16 µg/mL | 4 µg/mL | > 32 µg/mL | 0.5 µg/mL | 0.5 µg/mL | 1 µg/mL | MIC [7]: 4 µg/mL; MIC [8]: 2 µg/mL; MIC (S. aureus UBMS 90-3): 0.25 µg/mL; MIC [9]: 0.25 µg/mL; MIC (S. aureus IVES 2943; IVES2943, 18 h): 8 µg/mL; MIC (S. aureus ROSE (MP)): 8 µg/mL; MIC (S. aureus SMITH (MP); read-out: MIC): 0.5 µg/mL; MIC (S. aureus IVES 1 983; IVES1983, 18 h): 4 µg/mL; MIC (S. aureus ATCC 29213): 0.5 µg/mL; MIC [10]: 4 µg/mL; MIC (Enterococcus 12201): 0.25 µg/mL; MIC (E. faecalis ATCC 29212; ATCC29212, 18 h, 18 hours at 35° C.): 0.12 µg/mL
